US20150283233A1, “Compositions and Methods for Enhancing Immune Responses” (Gencia Corporation, priority 2012, published 2015)

System: MHC I
Experiment: MHC I western blot of orthotopic MiaPaca-2 pancreatic xenografts, with or without gemcitabine
Assay type: in vivo, BALB/c nude mouse
Conditions: gemcitabine only, 40 mg/kg every 3 days, orthotopic MiaPaca-2 tumors, FIG. 11
Description: MiaPaCa-2 tumor cells was maintained in vitro as monolayer culture in DMEM medium supplemented with 10% fetal bovine serum, 2.5% horse serum, 100 Um′ penicillin and 100 μg/ml streptomycin, and 2 mM L-glutamine at 37° C. in an atmosphere of 5% CO2 in air. The tumor cells were routinely subcultured twice weekly by trypsin-EDTA treatment. Cells in an exponential growth phase will be harvested and counted for tumor inoculation. Before orthotopic implantation, 5×10^6 MiaPaca-2 cells in 50 μl PBS mixed with 50 μl Matrigel were inoculated subcutaneously at the right flank of each BALB/c nude mouse. Upon subcutaneous tumor size reaching about 500 mm^3, tumors were collected for orthotopic implantation.
For orthotopic MiaPaca-2 xenografts, mice were anesthetized by intraperitoneal injection of pentobarbital sodium (50 mg/kg) before tumor inoculation. The abdominal skin was sterilized and laparotomy was performed to expose the pancreas. Each mouse was inoculated with a subcutaneous MiaPaca-2 tumor fragment (2-3 mm in diameter) in the subcapsular region of the pancreas for tumor development. The abdominal wall was closed using No. 6 suture and then sterilized with povidone iodine solution. The day of surgery was denoted as Day 0 (D0). The treatments with vehicle, gemcitabine only, PTD-TFAM only, and PTD-TFAM in combination with gemcitabine were started at 10 days post tumor fragment inoculation. […]

Nc1ccn([C@@H]2O[C@H](CO)[C@@H](O)C2(F)F)c(=O)n1 [Gemcitabine]
MHC I expression: decreased
